Values belong to the molecule of their own block, whether it stands above or below them. Active and inactive are the calls of the source. The rule behind the calls is not given here.
Key:
HT-1080 [1] = experiment: Suppression of MMP2 expression in phorbol myristate acetate-stimulated human HT1080 cells by Western blotting relative to control; type: functional, cell-based
[2] = target: 72 kDa type IV collagenase (Homo sapiens) (UniProt P08253); experiment: Reduction of gelatinolytic activity of MMP2 in phorbol myristate acetate-stimulated human HT1080 cells at 40 and 60 ug/ml; type: cell-based; conditions: HT-1080
HT-1080 [3] = experiment: Suppression of TIMP1 expression in phorbol myristate acetate-stimulated human HT1080 cells by Western blotting relative to control; type: functional, cell-based
HT-1080 [4] = experiment: Inhibition of cell migration in human HT1080 cells at 60 ug/ml; type: functional
[5] = target: Matrix metalloproteinase-9 (Homo sapiens) (UniProt P14780); experiment: Inhibition of MMP9 gelatinolytic activity in phorbol myristate acetate-stimulated human HT1080 cells at 60 ug/ml by gelatin zymography relative to control; type: cell-based; conditions: HT-1080
[6] = target: 72 kDa type IV collagenase (Homo sapiens) (UniProt P08253); experiment: Inhibition of MMP2 gene promoter activity in phorbol myristate acetate-stimulated human HT1080 cells at 60 ug/ml by luciferase reporter gene assay relative to control; type: cell-based; conditions: HT-1080
HT-1080 [7] = experiment: Antiinvasive activity in human HT1080 cells at 20 ug/ml after 48 hrs; type: functional
[8] = target: 72 kDa type IV collagenase (Homo sapiens) (UniProt P08253); experiment: Inhibition of MMP2 in phorbol myristate acetate-stimulated human HT1080 cells by gelatin zymography relative to control; type: cell-based; conditions: HT-1080
HT-1080 [9] = experiment: Suppression of AP1 c-FOS subunit expression in phorbol myristate acetate-stimulated human HT1080 cell nucleus by Western blotting relative to control; type: functional, cell-based
[10] = target: Matrix metalloproteinase-9 (Homo sapiens) (UniProt P14780); experiment: Reduction of gelatinolytic activity of MMP9 in phorbol myristate acetate-stimulated human HT1080 cells at 40 and 60 ug/ml; type: cell-based; conditions: HT-1080
HT-1080 [11] = experiment: Suppression of TIMP2 expression in phorbol myristate acetate-stimulated human HT1080 cells by Western blotting relative to control; type: functional, cell-based
[12] = target: 72 kDa type IV collagenase (Homo sapiens) (UniProt P08253); experiment: Inhibition of MMP2 gelatinolytic activity in phorbol myristate acetate-stimulated human HT1080 cells at 60 ug/ml by gelatin zymography relative to control; type: cell-based; conditions: HT-1080
[13] = target: Matrix metalloproteinase-9 (Homo sapiens) (UniProt P14780); experiment: Inhibition of MMP9 gene promoter activity in phorbol myristate acetate-stimulated human HT1080 cells at 60 ug/ml by luciferase reporter gene assay relative to control; type: cell-based; conditions: HT-1080
HT-1080 [14] = experiment: Inhibition of ERK expression in phorbol myristate acetate-stimulated human HT1080 cells at 60 ug/ml by Western blotting relative to control; type: functional; design: scale not given: the % may be the effect or the level left
[15] = target: Transcription factor Jun (Homo sapiens) (UniProt P05412); experiment: Inhibition of AP1 gene promoter activity in phorbol myristate acetate-stimulated human HT1080 cells at 60 ug/ml by luciferase reporter gene assay; type: cell-based; conditions: HT-1080
[16] = target: Matrix metalloproteinase-9 (Homo sapiens) (UniProt P14780); experiment: Inhibition of MMP9 gelatinolytic activity in human HT1080 cells at upto 60 ug/ml by gelatin zymography relative to control; type: cell-based; conditions: HT-1080
[17] = target: Matrix metalloproteinase-9 (Homo sapiens) (UniProt P14780); experiment: Inhibition of MMP9 in phorbol myristate acetate-stimulated human HT1080 cells by gelatin zymography relative to control; type: cell-based; conditions: HT-1080
HT-1080 [18] = experiment: Suppression of MMP9 expression in phorbol myristate acetate-stimulated human HT1080 cells by Western blotting relative to control; type: functional, cell-based
HT-1080 [19] = experiment: Inhibition of NF-kappaB gene promoter activity in phorbol myristate acetate-stimulated human HT1080 cells at 60 ug/ml by luciferase reporter gene assay; type: cell-based
HT-1080 [20] = experiment: Inhibition of p38 expression in phorbol myristate acetate-stimulated human HT1080 cells at 60 ug/ml by Western blotting relative to control; type: functional, cell-based
[21] = target: 72 kDa type IV collagenase (Homo sapiens) (UniProt P08253); experiment: Inhibition of MMP2 gelatinolytic activity in human HT1080 cells at upto 60 ug/ml by gelatin zymography relative to control; type: cell-based; conditions: HT-1080
HT-1080 [22] = experiment: Suppression of NF-kappaB p65 subunit expression in phorbol myristate acetate-stimulated human HT1080 cell cytoplasm by Western blotting relative to control; type: functional, cell-based
HT-1080 [23] = experiment: Suppression of AP1 c-FOS subunit expression in phorbol myristate acetate-stimulated human HT1080 cell cytoplasm by Western blotting relative to control; type: functional, cell-based
HT-1080 [24] = experiment: Cytotoxicity against human HT1080 cells assessed as cell viability at upto 60 ug/ml; type: cell-based
[25] = target: 72 kDa type IV collagenase (Homo sapiens) (UniProt P08253); experiment: Inhibition of MMP2 gene promoter activity in phorbol myristate acetate-stimulated human HT1080 cells by luciferase reporter gene assay; type: cell-based; conditions: HT-1080
[26] = target: Matrix metalloproteinase-9 (Homo sapiens) (UniProt P14780); experiment: Inhibition of MMP9 gene promoter activity in phorbol myristate acetate-stimulated human HT1080 cells by luciferase reporter gene assay; type: cell-based; conditions: HT-1080
HT-1080 [27] = experiment: Inhibition of JNK expression in phorbol myristate acetate-stimulated human HT1080 cells at 60 ug/ml by Western blotting relative to control; type: functional, cell-based
HT-1080 [28] = experiment: Suppression of NF-kappaB p65 subunit expression in phorbol myristate acetate-stimulated human HT1080 cell nucleus by Western blotting relative to control; type: functional, cell-based
HT-1080 [29] = experiment: Antiinvasive activity in human HT1080 cells at 60 ug/ml after 48 hrs; type: functional, cell-based

Matrix metalloproteinase-9 (Homo sapiens), sequence (P14780 whole entry): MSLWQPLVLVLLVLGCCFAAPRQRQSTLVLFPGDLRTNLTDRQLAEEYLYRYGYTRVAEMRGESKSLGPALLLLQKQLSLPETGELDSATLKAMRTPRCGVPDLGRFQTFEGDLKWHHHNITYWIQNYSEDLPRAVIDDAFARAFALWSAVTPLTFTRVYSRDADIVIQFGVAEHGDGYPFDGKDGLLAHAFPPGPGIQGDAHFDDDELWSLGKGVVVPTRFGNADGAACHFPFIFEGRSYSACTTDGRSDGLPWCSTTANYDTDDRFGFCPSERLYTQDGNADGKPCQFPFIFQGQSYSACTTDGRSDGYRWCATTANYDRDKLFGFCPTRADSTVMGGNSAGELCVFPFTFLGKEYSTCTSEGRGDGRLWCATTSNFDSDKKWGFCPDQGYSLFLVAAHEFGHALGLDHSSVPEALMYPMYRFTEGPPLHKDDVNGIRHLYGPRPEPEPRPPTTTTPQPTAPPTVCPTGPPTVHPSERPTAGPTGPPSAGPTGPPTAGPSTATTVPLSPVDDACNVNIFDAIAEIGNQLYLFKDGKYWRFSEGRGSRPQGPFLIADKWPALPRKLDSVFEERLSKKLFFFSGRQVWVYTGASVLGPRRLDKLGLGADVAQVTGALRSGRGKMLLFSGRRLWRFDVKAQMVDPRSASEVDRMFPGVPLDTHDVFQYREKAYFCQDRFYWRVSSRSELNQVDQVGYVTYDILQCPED
72 kDa type IV collagenase (Homo sapiens), sequence (P08253 110-660 limits assumed): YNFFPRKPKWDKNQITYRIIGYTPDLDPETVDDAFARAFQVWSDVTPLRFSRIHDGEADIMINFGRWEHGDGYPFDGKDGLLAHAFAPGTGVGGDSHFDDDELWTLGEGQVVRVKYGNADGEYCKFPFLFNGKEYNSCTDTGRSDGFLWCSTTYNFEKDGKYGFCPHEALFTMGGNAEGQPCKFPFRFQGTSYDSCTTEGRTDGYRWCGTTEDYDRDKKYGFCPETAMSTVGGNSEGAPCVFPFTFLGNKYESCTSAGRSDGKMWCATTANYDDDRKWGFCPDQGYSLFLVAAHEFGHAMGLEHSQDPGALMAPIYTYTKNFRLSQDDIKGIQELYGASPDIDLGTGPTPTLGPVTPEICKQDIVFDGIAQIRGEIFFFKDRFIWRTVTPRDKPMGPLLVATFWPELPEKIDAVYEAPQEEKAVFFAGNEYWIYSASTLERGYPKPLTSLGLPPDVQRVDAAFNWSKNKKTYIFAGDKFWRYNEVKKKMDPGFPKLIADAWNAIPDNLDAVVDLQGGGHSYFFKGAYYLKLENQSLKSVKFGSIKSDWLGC
Transcription factor Jun (Homo sapiens), sequence (P05412 whole entry): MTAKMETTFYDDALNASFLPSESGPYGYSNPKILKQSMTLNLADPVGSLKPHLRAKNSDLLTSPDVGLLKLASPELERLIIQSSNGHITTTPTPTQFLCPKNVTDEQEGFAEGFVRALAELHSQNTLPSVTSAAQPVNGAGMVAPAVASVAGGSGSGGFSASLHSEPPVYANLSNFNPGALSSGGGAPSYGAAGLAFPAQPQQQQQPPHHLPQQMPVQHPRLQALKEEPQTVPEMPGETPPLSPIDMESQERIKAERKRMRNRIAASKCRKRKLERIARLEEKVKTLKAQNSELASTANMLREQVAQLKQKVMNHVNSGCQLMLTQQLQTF

Activity [2]: Active
inhibition [5]: 50%
fold change (FC) [6]: 3
inhibition [8]: Active
Activity [10]: Active
inhibition [12]: 62%
fold change (FC) [13]: 3
inhibition [15]: 60%
inhibition [16]: inactive
inhibition [17]: Active
inhibition [21]: inactive
inhibition [25]: Dose-dependent effect
inhibition [26]: Dose-dependent effect
Structure (SMILES): C[N+](C)(C)CC(O)CN[C@@H]1[C@@H](O)[C@H](O)[C@@H](CO)O[C@H]1O (stereo partly drawn)
Activity (HT-1080 [1]): Dose-dependent effect
Activity (HT-1080 [3]): inactive
inhibition at 60 µg/mL (HT-1080 [4]): 70%
Activity (HT-1080 [7]): 50%
Activity (HT-1080 [9]): Active
Activity (HT-1080 [11]): inactive
Activity (HT-1080 [14]): 60%
Activity (HT-1080 [18]): Dose-dependent effect
inhibition (HT-1080 [19]): 65%
inhibition (HT-1080 [20]): Active
Activity (HT-1080 [22]): Active
Activity (HT-1080 [23]): Active
Activity (HT-1080 [24]): Non-toxic
inhibition (HT-1080 [27]): Active
Activity (HT-1080 [28]): Active

inhibition [5]: inactive
inhibition [12]: inactive
Structure (SMILES): N[C@H]1C(O)O[C@H](CO)[C@@H](O)[C@@H]1O (stereo partly drawn)
Activity (HT-1080 [29]): inactive

inhibition [16]: inactive
inhibition [21]: inactive
Structure (SMILES): C[C@H]1c2cccc(O)c2C(=O)C2=C(O)[C@]3(O)C(=O)C(C(N)=O)=C(O)[C@@H](N(C)C)[C@@H]3[C@@H](O)[C@@H]21
